# Measured values from ChEMBL document CHEMBL1201862, “PubChem BioAssay data set” (2004).
#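 A five-concentration, 48-hour dose response in 96-well plates underlies each endpoint, interpolated linearly between surrounding concentrations. The concentration for 50% growth inhibition is given as GI50.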 The source made the active and inactive calls. Cut-off read from the data, not from the text of the source: active = GI50 up to about 1.1 µM and inactive = higher.
# Tests used:
# Experiment in all cases: growth of human tumour cells (NCI), 48 h
# 786-0 = system: 786-0
# A498 = system: A498
# A549 = system: A549
# ACHN = system: ACHN
# CAKI-1 = system: CAKI-1
# CCRF-CEM = system: CCRF-CEM
# COLO 205 = system: COLO 205
# DLD-1 = system: DLD-1
# DMS-114 = system: DMS-114
# DMS-273 = system: DMS-273
# EKVX = system: EKVX
# HCC 2998 = system: HCC 2998
# HCT-116 = system: HCT-116
# HCT-15 = system: HCT-15
# HL-60 = system: HL-60
# HOP-18 = system: HOP-18
# HOP-62 = system: HOP-62
# HOP-92 = system: HOP-92
# HT-29 = system: HT-29
# IGROV-1 = system: IGROV-1
# K562 = system: K562
# KM-20L2 = system: KM-20L2
# KM12 = system: KM12
# LOX IMVI = system: LOX IMVI
# M14 = system: M14
# M19-MEL = system: M19-MEL
# MOLT-4 = system: MOLT-4
# Malme-3M = system: Malme-3M
# NCI-H226 = system: NCI-H226
# NCI-H23 = system: NCI-H23
# NCI-H460 = system: NCI-H460
# OVCAR-3 = system: OVCAR-3
# OVCAR-4 = system: OVCAR-4
# OVCAR-5 = system: OVCAR-5
# OVCAR-8 = system: OVCAR-8
# RPMI-8226 = system: RPMI-8226
# RXF 393 = system: RXF 393
# SF-268 = system: SF-268
# SF-295 = system: SF-295
# SF-539 = system: SF-539
# SK-MEL-28 = system: SK-MEL-28
# SK-MEL-2 = system: SK-MEL-2
# SK-MEL-5 = system: SK-MEL-5
# SK-OV-3 = system: SK-OV-3
# SN12C = system: SN12C
# SNB-19 = system: SNB-19
# SNB-75 = system: SNB-75
# SNB-78 = system: SNB-78
# SW-620 = system: SW-620
# TK-10 = system: TK-10
# UACC-257 = system: UACC-257
# UACC-62 = system: UACC-62
# UO-31 = system: UO-31
# XF498 = system: XF498
compound,measurement,setting,value
COC(=O)C(C(=O)C(=O)Nc1ccc([N+](=O)[O-])cc1[N+](=O)[O-])c1nc2ccc(Cl)cc2nc1O (centres undefined),GI50,786-0,> 100 µM (inactive)
same,GI50,A498,44.2 µM (inactive)
same,GI50,A549,> 100 µM (inactive)
same,GI50,ACHN,65 µM (inactive)
same,GI50,CAKI-1,> 100 µM (inactive)
same,GI50,CCRF-CEM,> 100 µM (inactive)
same,GI50,COLO 205,> 100 µM (inactive)
same,GI50,DLD-1,> 100 µM (inactive)
same,GI50,DMS-114,72.4 µM (inactive)
same,GI50,DMS-273,> 100 µM (inactive)
same,GI50,EKVX,40.8 µM (inactive)
same,GI50,HCC 2998,> 100 µM (inactive)
same,GI50,HCT-116,> 100 µM (inactive)
same,GI50,HCT-15,> 100 µM
same,GI50,HL-60,> 100 µM (inactive)
same,GI50,HOP-18,59.3 µM (inactive)
same,GI50,HOP-62,> 100 µM (inactive)
same,GI50,HOP-92,> 100 µM (inactive)
same,GI50,HT-29,> 100 µM (inactive)
same,GI50,IGROV-1,> 100 µM (inactive)
same,GI50,K562,> 100 µM (inactive)
same,GI50,KM-20L2,> 100 µM (inactive)
same,GI50,KM12,> 100 µM (inactive)
same,GI50,LOX IMVI,> 100 µM (inactive)
same,GI50,M14,> 100 µM (inactive)
same,GI50,M19-MEL,> 100 µM (inactive)
same,GI50,MOLT-4,73.1 µM (inactive)
same,GI50,Malme-3M,> 100 µM (inactive)
same,GI50,NCI-H226,79.1 µM (inactive)
same,GI50,NCI-H23,77.8 µM (inactive)
same,GI50,NCI-H460,> 100 µM (inactive)
same,GI50,OVCAR-3,66.4 µM (inactive)
same,GI50,OVCAR-4,> 100 µM (inactive)
same,GI50,OVCAR-5,> 100 µM (inactive)
same,GI50,OVCAR-8,> 100 µM (inactive)
same,GI50,RPMI-8226,89.9 µM (inactive)
same,GI50,RXF 393,30.5 µM (inactive)
same,GI50,SF-268,> 100 µM (inactive)
same,GI50,SF-295,> 100 µM (inactive)
same,GI50,SF-539,> 100 µM (inactive)
same,GI50,SK-MEL-28,> 100 µM (inactive)
same,GI50,SK-MEL-2,> 100 µM (inactive)
same,GI50,SK-MEL-5,99.8 µM (inactive)
same,GI50,SK-OV-3,> 100 µM (inactive)
same,GI50,SN12C,> 100 µM (inactive)
same,GI50,SNB-19,> 100 µM (inactive)
same,GI50,SNB-75,68.2 µM (inactive)
same,GI50,SNB-78,> 100 µM (inactive)
same,GI50,SW-620,> 100 µM (inactive)
same,GI50,TK-10,> 100 µM (inactive)
same,GI50,UACC-257,> 100 µM (inactive)
same,GI50,UACC-62,> 100 µM (inactive)
same,GI50,UO-31,41.1 µM (inactive)
same,GI50,XF498,> 100 µM (inactive)
